From paper PMC12405493, “Selective ubiquitination of drug-like small molecules by the ubiquitin ligase HUWE1” (Nature Communications, 2025)

System: HEK293T cells
Test: LC/MS/MS detection of ubiquitinated compound from cell lysates (Ub pull-down)
Assay type: cell-based, human
Conditions: 15 μM, 1 h
Protocol: Samples for LC/MS/MS analyses of the ubiquitinated inhibitors from reconstituted HUWE1^FL-driven reactions were prepared by in-solution trypsin (Mass Spec Grade, Promega) digestion, instead of the gel-based LysC digestion procedure described above. […] In both cases, the samples were reduced and alkylated with 10 mM TCEP and 20 mM iodoacetamide at 37 °C in the dark for 60 min. An equal mixture of Sera-Mag SpeedBeads with hydrophilic and hydrophobic surfaces (GE Healthcare; 1:1 mix (v/v)) was washed twice with water and added to the sample at 50:1(w/w) resin-to-protein ratio. […] The resulting peptides were then dried, dissolved in 5% ACN/0.1% FA (both v/v), and measured on a hybrid quadruple-Obitrap Exploris480 mass spectrometer (Thermo Fisher Scientific) coupled to an Ultimate 3000 UHPLC system (Thermo Fisher Scientific). […]
Sample preparation for LC/MS/MS detection of ubiquitinated compounds from cell lysates was performed according to the following workflow: HEK293T cells at 70% confluency were treated with 15 μM BI8626 or an equal volume of DMSO for 1 h. […] After 20 min incubation on a rotating wheel at 4 °C, the lysate was cleared by centrifugation, the total protein concentrations determined, and the sample (2.3 mg) diluted with 10 mM Tris (pH 7.5), 150 mM NaCl and 0.5 mM EDTA to a final volume of 1 mL. […]

NCc1cccc(CNc2ncnc3c(N4CCN(Cc5ccccc5)CC4)ncnc23)c1 [BI8626]
Compound ubiquitination in cells (targeted MS/MS after Ub pull-down): indeed ubiquitinated in cells
